From patent US9415032B2, “Membrane activated chelators and use in the prevention and treatment of parasitic infection” (THE JOHNS HOPKINS UNIVERSITY, priority 2011, dated 2016)
Read-outs that look alike come from different tables or passages of the source.

Legend:
Format in all cases: cell-based
[1] = tested on: P. falciparum; experiment: antimalarial cytotoxicity assay ([3H]hypoxanthine), malaria-infected RBC; conditions: Plasmodium falciparum
Method: FIG. 2 is set of graphs showing the percentage of P. falciparum killed by MACs of the present invention as a function of drug concentration. Malaria-infected RBC were incubated with DP-b99 (A and B).
FIG. 3 is a graph showing the percentage of P. falciparum killed by MACs of the present invention as a function of drug concentration.
Malaria. Because of the importance of calcium signaling in mammalian cells and recent findings that interference with host cell signaling pathways to subvert the host intracellular milieu may be an important mechanism for the malaria parasite's survival, it was thought that MACs might be toxic to malarial parasite within host cells (i.e. RBCs, hepatocytes). It was investigated whether MAC compounds of the present invention would be able to kill intracellular malaria parasites. An established antimalarial cytotoxicity assay developed in Dr. Theresa Shapiro's laboratory (JHU) (Tetrahedron, 1997; 53(1):37-50) was used with the following modifications: (1) Parasitemia was maintained at 0.1% to 5% by thrice weekly change of medium and replenishment of human erythrocytes; (2) [^3H]hypoxanthine (10-30 Ci/mmol, 1.0 mCi/mL was used in aqueous solution, (Perkin-Elmer NET177001MC), diluted to 25 μCi/mL with medium; and as for the trypanosome experiments (3) the cytotoxicity assays for two MAC compounds of the present invention, DP-b99 and DP-460 (DPharm, Ltd., Rehovot Ill.), included 10 concentrations based on stock solutions (50.0 mg/mL) of each compound that were prepared in sterile HPLC-grade water.

[2] = tested on: T. b. brucei 427 or T. b. rhodesiense IL1852; experiment: trypanosome cytotoxicity assay in vitro; conditions: Trypanosoma brucei, by 24 hours, BSF trypanosomes, read-out: effective concentration of drug to kill 50% (EC50) of the parasites
Method: (§1) FIG. 1 illustrates the effect of MACs of the present invention on human brain microvascular endothelial cell (BMEC) monolayers interaction with trypanosomes. (A) Human BMEC pretreated with 20 μM DP-b99 impeded parasite transmigration across this barrier (t-5 hours, n=3). […] The data are represented as average TEER or migration±S.E. (n=4; p<0.05). (B) BSF trypanosomes were incubated with DP-b99 or DP460. The average percent (n=4) of parasites killed after 24 hours is plotted against drug concentration.
(§2) African Trypanosomes: The MAC compound of the present invention, DP-b99, as a chelator of Ca^2+ and Zn^2+ was tested to determine whether it would tighten the BBB to trypanosome traversal based on the concepts described above. In pilot parasite/BBB transmigration experiments, bloodstream form Trypanosoma brucei rhodesiense (Tbr) IL1852 were incubated in Transwell inserts containing human brain microvascular endothelial cell (BMEC) monolayers pretreated for 60 minutes with DP-b99, then washed free of drug. In a parallel experiment, human BMEC grown on gold-coated electrode ECIS arrays, were similarly treated with the MAC compound. When compared to the untreated control group, T. b. rhodesiense transmigration across a human BMEC barrier was impeded 60% after 5 hours incubation (FIG. 1A). […]

[3] = tested on: human brain microvascular endothelial cell (BMEC) monolayers; experiment: ECIS transendothelial electrical resistance (TEER) of human BMEC during infection; conditions: BMEC pretreated with 20 μM DP-b99
Method: as §1, §2

[4] = tested on: bloodstream form Trypanosoma brucei rhodesiense (Tbr) IL1852 transmigration across human BMEC barrier; experiment: parasite/BBB transmigration across human BMEC monolayers in Transwell inserts; conditions: BMEC pretreated 60 minutes with 20 μM DP-b99, washed free of drug; after 5 hours incubation
Method: as §1, §2

[5] = pilot experiments, read-out: concentration range found to kill P. falciparum

Row | Compound | EC50 ([1]; R^2=0.995 (FIG. 3), read-out: EC50, P. falciparum killed) [µM] | EC50 [1, 5] [µM] | EC50 [2] [µM] | barrier tightness of human BMEC during the infection (ECIS TEER) [3] | T. b. rhodesiense transmigration across a human BMEC barrier impeded, compared to untreated control [4] [%]
1 | CCCCCCCCCCCCOCCOC(=O)CN(CC(=O)O)c1ccccc1OCCOc1ccccc1N(CC(=O)O)CC(=O)OCCOCCCCCCCCCCCC [DP-460] | 28 | 21 to 28 | ~39 | – | –
2 | CCCCCCCCOCCOC(=O)CN(CC(=O)O)c1ccccc1OCCOc1ccccc1N(CC(=O)O)CC(=O)OCCOCCCCCCCC [DP-b99] | – | 21 to 28 | ~87 | maintained a tighter barrier | 60
